Columns and labels:
IKBKAP exon 20 inclusion = experiment: In vivo familial dysautonomia mouse model: splicing analysis in tissues; details: for inclusion of exon 20 in C57BI6-FD mouse tissues (FIGS. 1A-6): 10, 30 and 60 mg/kg/day, 8 days
Protocol: […] Every dosing group and the control group (vehicle) consisted of 6 mice. The mice were given food and water ad libitum, and changes in body weights were monitored on a daily basis. On the eighth day the mice were dosed for the last time and after 1 hour the mice were sacrificed and dissected. Plasma, liver, kidney, heart and brain were collected.
The following solutions were prepared daily: Compound (230) in 10% DMA/45% PEG 300/12% EtOH/33% sterile water; and Compound (270) in 10% DMA/45% PEG 300/12% EtOH/33% sterile water.
[…] Six transgenic mice were fed daily with 10% DMA/45% PEG 300/12% EtOH/33% sterile water solution for the same duration. The mice were given food and water ad libitum, and changes in body weights were monitored on a daily basis. On the eighth day the mice were dosed for the last time and after 1 hour were sacrificed and dissected. Plasma, lungs, muscle, liver, heart, brain, kidney, sciatic nerve, and trigeminal nerve were collected. Splicing was evaluating by RT-PCT and IKAP protein was evaluated using Western Blotting.

[1] = tested on: normal IKBKAP mRNA in peripheral blood; details: human patients and carriers of familial dysautonomia, preliminary testing; cited from earlier work
[2] = tested on: IKBKAP splicing (exon 20 inclusion) in FD fibroblasts GM04663; experiment: Secondary assay: IKBKAP splicing analysis by RT-PCR in FD fibroblasts GM04663; format: cell-based; details: Homo sapiens, FD fibroblasts GM04663, 24 hours of treatment, read-out: % exon Inclusion Normalized
IKAP protein = experiment: In vivo FD mouse model: IKAP protein in liver by western blot; details: 400 mg/kg/day
Protocol: Six transgenic mice were fed daily with 10% DMA/45% PEG 300/12% EtOH/33% sterile water solution for the same duration. The mice were given food and water ad libitum, and changes in body weights were monitored on a daily basis. On the eighth day the mice were dosed for the last time and after 1 hour were sacrificed and dissected. Plasma, lungs, muscle, liver, heart, brain, kidney, sciatic nerve, and trigeminal nerve were collected. Splicing was evaluating by RT-PCT and IKAP protein was evaluated using Western Blotting. Protein extracts were obtained by homogenizing liver or cell pellets in RIPA buffer (Tris-HCl 50 mM, pH 7.4; NaCl 150 mM; NP-40 1%; Sodium deoxycholate 0.5%; SDS 0.1%) containing protease inhibitor cocktail (Sigma), DTT (100 μM) and PMSF (100 μM). Insoluble debris were discarded after centrifugation and protein concentration was determined using Pierce® […] BCA Protein Assay Kit (Thermo Scientific). 50 μg of protein was separated on NuPage 4-12% Bis-Tris Gel (Invitrogen) and transferred into nitrocellulose membrane (Thermo Scientific). […]

IKBKAP splicing = details: mice, oral, 400 mg/kg/day for 7 days; cited from earlier work
[3] = In vivo FD mouse model: presence of compound in plasma and brain; details: oral gavage eight days, 1 hour after last dose
Protocol: Compound (100) was administered by oral gavage for eight days at 60 mg/kg/day, 30 mg/kg/day and 10 mg/kg/day to the mouse transgenic familial dysautonomia (FD) model. Every dosing group and the control group (vehicle) consisted of 6 mice. The mice were given food and water ad libitum, and changes in body weights were monitored on a daily basis. On the eighth day the mice were dosed for the last time and after 1 hour the mice were sacrificed and dissected. Plasma, liver, kidney, heart and brain were collected.

[4] = tested on: FD (familial dysautomonia) IKBKAP minigene, exon 20 inclusion, in HEK293T cells; experiment: Primary splicing assay (FD IKBKAP minigene, Firefly/Renilla luciferase reporter in HEK293T); format: cell-based, human; details: Homo sapiens, HEK-293T, Firefly/Renilla ratio, 24 hours of treatment; for EC (maximum kinetin efficacy): HEK293T, read-out: ECk (compound concentration at which the maximum kinetin efficacy (200 μM) is reached); for Emax: max efficacy in Primary Assay, kinetin and DMSO as positive and negative controls, read-out: Emax (%)

Work on `FCCn1ncc2c(NCc3ccco3)nc(Cl)nc21` [Example 12, 6-Chloro-1-(2-fluoroethyl)-N-(furan-2-ylmethyl)-1H-pyrazolo[3,4-d]pyrimidin-4-amine] yielded a melting point of 125 to 128 °C.

In the case of `c1coc(CNc2ncnc3nc[nH]c23)c1` [kinetin, N^6-furfuryladenine, reference compound], the splicing in kidney (IKBKAP exon 20 inclusion; 400 mg/kg/day) is listed as “no significant changes in splicing”, the splicing in brain (IKBKAP exon 20 inclusion; 400 mg/kg/day, 8 days of treatment) is listed as “no significant change” and the “normal IKBKAP mRNA in peripheral blood” value [1] is listed as “increased normal IKBKAP mRNA in peripheral blood”. For the same compound, the activation at 200 µM ([2]; 200 μM (kinetin control)) was 100%, the “level of the IKAP protein in liver” value (IKAP protein) was “no significant changes” and the “IKBKAP splicing in vivo in certain tissues, including the brain” value (IKBKAP splicing) was “improve IKBKAP splicing in vivo”.

With `Clc1nc(NCc2ccncc2)c2cc[nH]c2n1` [(100)] the activation at 0.08 µM [2] was 22.6%, the activation at 0.8 µM [2] was 62.1% and the “presence of compound in brain” value [3] was “evident in the brain”. The “presence of compound in plasma” value [3] was “presence of (100) in the plasma”, the EC (maximum kinetin efficacy) [4] was 2.18 µM and the Emax [4] was 235%.

For `FC(F)(F)COc1nc2c(NCc3ccco3)nc(Cl)nc2[nH]1` [(270)], the “inclusion of exon 20 in C57BI6-FD mouse tissues (FIGS. 1A-6)” value (IKBKAP exon 20 inclusion) was “useful for improving inclusion of exon 20”, the activation at 0.08 µM [2] was 28.7% and the activation at 0.8 µM [2] was 101%. The EC (maximum kinetin efficacy) [4] was 0.59 µM and the Emax [4] was 218%.

`Clc1nc(NCc2cscn2)c2cc[nH]c2n1` [(372)] showed an activation at 0.08 µM [2] of 13.4%, an activation at 0.8 µM [2] of 48.7% and an EC (maximum kinetin efficacy) [4] of 3.71 µM. The Emax [4] was 126%.

In the case of `COc1nc2c(NCc3nccs3)nc(Cl)nc2[nH]1` [(230)], the “inclusion of exon 20 in C57BI6-FD mouse tissues (FIGS. 1A-6)” value (IKBKAP exon 20 inclusion) is reported as “useful for improving inclusion of exon 20”, the activation at 0.08 µM [2] is reported as 22.3% and the activation at 0.8 µM [2] is reported as 70%. For the same compound, the EC (maximum kinetin efficacy) [4] was 1.5 µM and the Emax [4] was 216%.

With `CCCOc1nc2c(NCc3nccs3)nc(Cl)nc2[nH]1` [(271)] the activation at 0.08 µM [2] was 62.2%, the activation at 0.8 µM [2] was 107% and the EC (maximum kinetin efficacy) [4] was 0.29 µM. The Emax [4] was 206%.

For `COCCOc1nc2c(NCc3ccncn3)nc(Cl)nc2[nH]1` [(319)], the activation at 0.08 µM [2] was 14.2%, the activation at 0.8 µM [2] was 77.8% and the EC (maximum kinetin efficacy) [4] was 1.56 µM. For the same compound, the Emax [4] was 204%.
